Our source for the T/C values is PubChem BioAssay AID330 (DTP/NCI, 2004).

This assay has as its system P388 leukemia ip, CD2F1 mice, survival T/C. In words: NCI In Vivo Anticancer Drug Screen. Data for tumor model P388 Leukemia (intraperitoneal) in CD2F1 (CDF1) mice. As to conditions: endpoint: median survival time, higher = longer survival. Put shortly: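 Mice carrying the transplanted tumor received test compound or vehicle. Survival was recorded in each group, and the value is the treated-group measurement divided by that of the vehicle-treated control group.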

Setting [1] is: dose: 60.0 mg/kg/injection, schedule: Q01DX005 (ip), vehicle: saline.
[2] abbreviates: dose: 120.0 mg/kg/injection, schedule: Q01DX005 (ip), vehicle: saline.
Setting [3] is: dose: 240.0 mg/kg/injection, schedule: Q01DX005 (ip), vehicle: saline.
Setting [4] is: dose: 60.0 mg/kg/injection, schedule: Q01DX005 (ip), vehicle: Klucel (hydroxypropylcellulose) (HPC).
The mark [5] stands for this setting: dose: 120.0 mg/kg/injection, schedule: Q01DX005 (ip), vehicle: Klucel (hydroxypropylcellulose) (HPC).
The mark [6] stands for this setting: dose: 240.0 mg/kg/injection, schedule: Q01DX005 (ip), vehicle: Klucel (hydroxypropylcellulose) (HPC).
[7] abbreviates: dose: 50.0 mg/kg/injection, schedule: Q01DX005 (ip), vehicle: saline with Tween-80.
The mark [8] stands for this setting: dose: 100.0 mg/kg/injection, schedule: Q01DX005 (ip), vehicle: saline with Tween-80.
The mark [9] stands for this setting: dose: 200.0 mg/kg/injection, schedule: Q01DX005 (ip), vehicle: saline with Tween-80.
Where [10] appears, read: dose: 25.0 mg/kg/injection, schedule: Q01DX005 (ip), vehicle: saline with Tween-80.
Setting [11] is: dose: 50.0 mg/kg/injection, schedule: Q01DX005 (ip), vehicle: Klucel (hydroxypropylcellulose) (HPC).
Setting [12] is: dose: 100.0 mg/kg/injection, schedule: Q01DX005 (ip), vehicle: Klucel (hydroxypropylcellulose) (HPC).
The mark [13] stands for this setting: dose: 60.0 mg/kg/injection, schedule: Q01DX005 (ip), vehicle: saline with Tween-80.
The mark [14] stands for this setting: dose: 120.0 mg/kg/injection, schedule: Q01DX005 (ip), vehicle: saline with Tween-80.

“And” between values parts separate entries of the source, which are not always exact repeats. Equal entries are not always repeated. Toxic doses and inconclusive results are not listed.

In the case of `COc1cc2c(c(OC)c1OC)-c1ccc(OC)c(=O)cc1C(N(C)C(=O)CO)CC2` (stereo not drawn), the T/C is, setting by setting: (dose: 0.16 mg/kg/injection, schedule: Q01DX009 (ip), vehicle: Klucel (hydroxypropylcellulose) (HPC)) 120 % of control and 123 % of control; (dose: 0.31 mg/kg/injection, schedule: Q01DX009 (ip), vehicle: Klucel (hydroxypropylcellulose) (HPC)) 155 % of control; (dose: 0.62 mg/kg/injection, schedule: Q01DX009 (ip), vehicle: Klucel (hydroxypropylcellulose) (HPC)) 166 % of control; (dose: 0.62 mg/kg/injection, schedule: Q01DX009 (ip), vehicle: saline) 189 % of control; (dose: 1.25 mg/kg/injection, schedule: Q01DX009 (ip), vehicle: Klucel (hydroxypropylcellulose) (HPC)) 112 % of control and 212 % of control.
`O=C(n1ccnc1)C(F)(F)C(F)(F)F`: the T/C reads like this: under setting [1], 95 % of control; under setting [2], 101 % of control; under setting [3], 96 % of control.
Consider `COc1cc(C=C2C(=O)C=CC2=O)ccc1O`, for which the T/C runs as follows: (dose: 12.5 mg/kg/injection, schedule: Q04DX002 (ip), vehicle: saline) 92 % of control; (dose: 25.0 mg/kg/injection, schedule: Q04DX002 (ip), vehicle: saline) 96 % of control.
In the case of `O=c1[nH]c2c([N+](=O)[O-])cc(Cl)cc2nc1/C=C(\O)c1ccccn1`, the T/C reads like this: under setting [4], 101 % of control; under setting [5], 99 % of control; under setting [6], 98 % of control.
As for `CS(=O)CC(=N\O)/C(CS(C)=O)=N\O` (stereo not drawn), the T/C is 104 % of control under setting [1], 108 % of control under setting [2] and 103 % of control under setting [3].
In the case of `FC(F)(F)c1ccc(-c2nn[nH]n2)cc1`, the T/C was 107 % of control under setting [4] and 101 % of control under setting [5].
As to `O=C(N/C(=C\c1ccccc1)C(=O)N1CCN(c2ccccc2)CC1)c1ccccc1`, the T/C runs as follows: under setting [7], 98 % of control; under setting [8], 98 % of control; under setting [9], 86 % of control.
For `NC(Cc1ccc[se]1)C(=O)O` (stereo not drawn), the T/C is, setting by setting: (dose: 6.25 mg/kg/injection, schedule: Q01DX005 (ip), vehicle: saline) 105 % of control; (dose: 12.5 mg/kg/injection, schedule: Q01DX005 (ip), vehicle: saline) 99 % of control; under setting [10], 103 % of control; (dose: 25.0 mg/kg/injection, schedule: Q01DX005 (ip), vehicle: saline) 97 % of control; under setting [7], 94 % of control.
Consider `CCC(O)c1ccco1` (stereo not drawn), for which the T/C by setting is: (dose: 12.5 mg/kg/injection, schedule: Q01DX005 (ip), vehicle: saline with Tween-80) 109 % of control; under setting [10], 100 % of control; under setting [7], 111 % of control and 112 % of control.
As to `COc1ccc(OC)c(CCN2C(=O)c3cccc4c([N+](=O)[O-])ccc(c34)C2=O)c1`, the T/C is 98 % of control (dose: 50.0 mg/kg/injection, schedule: Q01DX009 (ip), vehicle: Klucel (hydroxypropylcellulose) (HPC)); 106 % of control (dose: 100.0 mg/kg/injection, schedule: Q01DX009 (ip), vehicle: Klucel (hydroxypropylcellulose) (HPC)); 113 % of control (dose: 200.0 mg/kg/injection, schedule: Q01DX009 (ip), vehicle: Klucel (hydroxypropylcellulose) (HPC)).
For the compound `COc1ccc2c(C)cc(N/N=C(\C)c3cn(C)n(-c4ccccc4)c3=O)nc2c1`, the T/C is 98 % of control (dose: 12.5 mg/kg/injection, schedule: Q01DX005 (ip), vehicle: Klucel (hydroxypropylcellulose) (HPC)); 95 % of control (dose: 25.0 mg/kg/injection, schedule: Q01DX005 (ip), vehicle: Klucel (hydroxypropylcellulose) (HPC)); 101 % of control and 93 % of control under setting [11]; 110 % of control under setting [12].
Turning to `CCOC(=O)c1c(O)c(C)c(=O)n2c1[nH]c1cc(C)c(C)cc12`, the T/C was 93 % of control under setting [13] and 98 % of control under setting [14].
As for `OCC(O)Cn1cnc2c(NO)ncnc21` (stereo not drawn), the T/C under setting [4] is 101 % of control, the T/C under setting [5] is 95 % of control and the T/C under setting [6] is 100 % of control.
On to `CC(C)NC(=O)OCc1c(COC(=O)NC(C)C)c(-c2ccc(F)cc2F)n2c1CCC2`, for which the T/C was 168 % of control (dose: 3.13 mg/kg/injection, schedule: Q01DX009 (ip), vehicle: distilled water + Tween-80); 158 % of control and 162 % of control (dose: 6.25 mg/kg/injection, schedule: Q01DX009 (ip), vehicle: distilled water + Tween-80); 174 % of control and 180 % of control (dose: 12.5 mg/kg/injection, schedule: Q01DX009 (ip), vehicle: distilled water + Tween-80); 99 % of control (dose: 25.0 mg/kg/injection, schedule: Q01DX009 (ip), vehicle: distilled water + Tween-80).
On to `COc1cc2c(cc1C(C)=O)C=CC(C)(C)O2`, for which the T/C is 100 % of control (dose: 22.5 mg/kg/injection, schedule: Q01DX005 (ip), vehicle: Klucel (hydroxypropylcellulose) (HPC)); 100 % of control (dose: 45.0 mg/kg/injection, schedule: Q01DX005 (ip), vehicle: Klucel (hydroxypropylcellulose) (HPC)); 94 % of control (dose: 90.0 mg/kg/injection, schedule: Q01DX005 (ip), vehicle: Klucel (hydroxypropylcellulose) (HPC)); 98 % of control (dose: 180.0 mg/kg/injection, schedule: Q01DX005 (ip), vehicle: Klucel (hydroxypropylcellulose) (HPC)).
For the compound `COc1nc2c(nnn2C2OC(CO)C(O)C(O)C2O)c(=O)[nH]1` (stereo not drawn), the T/C is 97 % of control under setting [1], 99 % of control under setting [2] and 100 % of control under setting [3].
As to `CN(c1ccccc1)P(C)(Cl)(c1ccccc1)c1ccccc1`, the T/C (dose: 1.56 mg/kg/injection, schedule: Q01DX009 (ip), vehicle: saline with Tween-80) was 101 % of control; the T/C (dose: 3.13 mg/kg/injection, schedule: Q01DX009 (ip), vehicle: saline with Tween-80) is 109 % of control; the T/C (dose: 6.25 mg/kg/injection, schedule: Q01DX009 (ip), vehicle: saline with Tween-80) is 118 % of control.
Take `CCOc1c(N2CCOCC2)c(=O)c1=O`: the T/C by setting is: (dose: 100.0 mg/kg/injection, schedule: Q01DX001 (ip), vehicle: saline with Tween-80) 100 % of control; (dose: 200.0 mg/kg/injection, schedule: Q01DX001 (ip), vehicle: saline with Tween-80) 100 % of control; (dose: 400.0 mg/kg/injection, schedule: Q01DX001 (ip), vehicle: saline with Tween-80) 90 % of control.
`c1ccc(-c2cnn3nnnc3n2)cc1`: the T/C was 104 % of control (dose: 100.0 mg/kg/injection, schedule: Q01DX001 (ip), vehicle: saline); 102 % of control (dose: 200.0 mg/kg/injection, schedule: Q01DX001 (ip), vehicle: saline); 101 % of control (dose: 400.0 mg/kg/injection, schedule: Q01DX001 (ip), vehicle: saline).
Regarding `O=C(O)COC1CC(=O)N2c3ccccc3C34CCN5C(=O)C(=O)C(CC53)C1C24` (stereo not drawn), the T/C reads like this: under setting [13], 96 % of control; under setting [14], 95 % of control; (dose: 240.0 mg/kg/injection, schedule: Q01DX005 (ip), vehicle: saline with Tween-80) 88 % of control.
For the compound `CC1C(=O)OC2C1CCC1(C)CCC(O)C(C)C21` (stereo not drawn), the T/C was 102 % of control (dose: 100.0 mg/kg/injection, schedule: Q04DX002 (ip), vehicle: saline with Tween-80); 99 % of control (dose: 200.0 mg/kg/injection, schedule: Q04DX002 (ip), vehicle: saline with Tween-80); 99 % of control (dose: 400.0 mg/kg/injection, schedule: Q04DX002 (ip), vehicle: saline with Tween-80).
In the case of `CC(=O)Cc1ccc(C)cc1`, the T/C is, setting by setting: (dose: 100.0 mg/kg/injection, schedule: Q04DX003 (ip), vehicle: saline with Tween-80) 104 % of control; (dose: 200.0 mg/kg/injection, schedule: Q04DX003 (ip), vehicle: saline with Tween-80) 104 % of control; (dose: 400.0 mg/kg/injection, schedule: Q04DX003 (ip), vehicle: saline with Tween-80) 104 % of control.
In the case of `CON1C(=O)OCC(c2ccccc2)(c2ccccc2)C1=O`, the T/C under setting [7] was 99 % of control, the T/C under setting [8] is 104 % of control and the T/C under setting [9] is 91 % of control.
As to `O=C(O)CS(=O)(=O)N1CCOCC1`, the T/C is, setting by setting: under setting [11], 102 % of control; under setting [12], 94 % of control.
As to `CCCCOCC(C)O` (stereo not drawn), the T/C is 109 % of control (dose: 100.0 mg/kg/injection, schedule: Q04DX003 (ip), vehicle: saline); 100 % of control (dose: 200.0 mg/kg/injection, schedule: Q04DX003 (ip), vehicle: saline); 90 % of control (dose: 400.0 mg/kg/injection, schedule: Q04DX003 (ip), vehicle: saline).
